For one data set, the target named is T1, human TMPRSS2 (Homo sapiens, UniProt O15393).
T1 construct: Flag; host or cells: 293T
Kind of data set: Cell-based TMPRSS2 enzyme activity assay (293T-TMPRSS2 cells, Boc-QAR-AMC).

For data set [1], the system named is SARS-CoV-2 wild-type Spike Vpps. In words: microbe, parasite or virus in culture. Conditions: Severe acute respiratory syndrome coronavirus 2, VeroE6/TMPRSS2, read-out: EC50 (inhibition of SARS-CoV-2 Vpp infection by 50%).
Data set [2] has the same test system. In words: microbe, parasite or virus in culture. Conditions: Severe acute respiratory syndrome coronavirus 2, Vero C1008, read-out: EC50 (inhibition of SARS-CoV-2 Vpp infection by 50%).
A short description of data set [3]: Cytotoxicity assay (MTT), 293T-ACE2. The conditions noted are these: human, tested concentrations given in μg/ml, read-out: CC50 (median cytotoxic concentration). The format is cell-based. On the procedure: (§1) The human embryonic kidney cells 293T stably expressing recombinant human ACE2 (293T-ACE2) were maintained in DMEM containing 10% FBS, 1% P/S, and […] hygromycin. The NCI-H460 cell line (human non-small cell lung cancer cells) was preserved in Modified Eagle’s Medium (MEM, Gibco, USA) supplemented with 10% FBS and 1% P/S. The VeroE6 cell line (African green monkey kidney cells) was grown in Dulbecco’s Modified Eagle’s Medium (DMEM, Gibco) supplemented with 10% fetal bovine serum (FBS, Gibco), 1× GlutaMAX (Gibco), and 1% penicillin/streptomycin (P/S, Hyclone, USA). All these cells were cultured at 37°C and 5% CO2. All cell lines are checked annually for mycoplasma contamination, and human cell lines were authenticated through STR profiling.
(§2) […]. The medium was removed, and viable cells were detected with MTT assay (Cyrusbioscience, Taiwan), which was read by absorbance at 570 nm by an ELISA reader. All experiments were performed independently in triplicates and repeated three times.

The nature of data set [4]: Cytotoxicity assay (MTT), NCI-H460. The class given is cell-based. The conditions noted are these: human, tested concentrations given in μg/ml, read-out: CC50 (median cytotoxic concentration). The protocol:
as §1, §2

In the next data set the target is T2, SARS-CoV-2 Mpro (Severe acute respiratory syndrome coronavirus 2, UniProt P0DTD1).
T2 construct: the main protease (M^pro/3CL^pro), a chymotrypsin-like protease
The format is biochemical.

The subject of data set [5] is wild-type SARS-CoV-2 Spike Vpps. Kind of data set: microbe, parasite or virus in culture. Conditions: Severe acute respiratory syndrome coronavirus 2, 293T/ACE2, read-out: EC50 (inhibition of SARS-CoV-2 Vpp infection by 50%).
In data set [6] the target is SARS-CoV-2 Spike RBD / human ACE2 interaction (UniProt P0DTC2+Q9BYF1). Kind of data set: Spike protein–ACE2 interaction ELISA assay. The class given is binding, SARS-CoV-2; human. Conditions: doses 0, 50, 100 μg/ml (method b11 says μM), Figure 1A. Background: An ELISA detects its analyte on a solid surface through an enzyme-linked reagent.
The test system of data set [7] is wild-type SARS-CoV-2 Spike Vpps. Kind of data set: microbe, parasite or virus in culture. Conditions: Severe acute respiratory syndrome coronavirus 2, NCI-H460, read-out: EC50 (inhibition of SARS-CoV-2 Vpp infection by 50%).
The subject of data set [8] is SARS-CoV-2 wild-type Spike Vpps. More on the design: EC50 (inhibition of SARS-CoV-2 Vpp infection by 50%): unit not given beside the values.
A short description of data set [9]: Cytotoxicity assay (MTT), VeroE6. The class given is cell-based. Conditions: African green monkey, tested concentrations given in μg/ml, read-out: CC50 (median cytotoxic concentration). On the procedure:
as §1, §2

A further data set deals with Mpro of SARS-CoV-2. Conditions: in vitro analysis; ref Zhu and Xie, 2020; cited from earlier work.

Where two headings read alike, the source gives them in different places.

T1 sequence (O15393 whole entry): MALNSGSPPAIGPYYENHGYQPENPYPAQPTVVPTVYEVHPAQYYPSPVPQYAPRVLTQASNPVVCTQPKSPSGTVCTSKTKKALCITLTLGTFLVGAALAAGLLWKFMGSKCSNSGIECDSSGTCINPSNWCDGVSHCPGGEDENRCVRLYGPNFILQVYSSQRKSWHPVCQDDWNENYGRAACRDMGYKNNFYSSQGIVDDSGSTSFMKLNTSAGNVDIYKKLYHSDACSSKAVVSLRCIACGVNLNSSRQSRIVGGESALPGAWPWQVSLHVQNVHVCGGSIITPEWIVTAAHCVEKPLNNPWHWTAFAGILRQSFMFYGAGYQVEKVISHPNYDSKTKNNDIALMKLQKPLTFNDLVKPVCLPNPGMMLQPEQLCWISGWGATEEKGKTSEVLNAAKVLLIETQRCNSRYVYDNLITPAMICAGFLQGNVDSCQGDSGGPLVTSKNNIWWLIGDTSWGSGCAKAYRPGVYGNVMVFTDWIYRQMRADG

One may read the IC50 as the concentration at which inhibition is half-maximal. What is called EC50 is the midpoint of the concentration-response curve. With `O=C1O[C@H]2[C@@H]3OC(=O)c4cc(O)c(O)c(O)c4-c4c(O)c(O)c5oc(=O)c6c(c(O)c(O)c7oc(=O)c4c5c76)-c4c(cc(O)c(O)c4O)C(=O)OC[C@H]3OC(O)[C@@H]2OC(=O)c2cc(O)c(O)c(O)c2-c2c1cc(O)c(O)c2O` (mixture of isomers) [Punicalagin, punicalagin], at human TMPRSS2, inhibition was half-maximal at 31.9 µM (IC50). Besides, the “inhibitory activity on TMPRSS2” value on human TMPRSS2 (Figure 1C, in words) is “only moderate inhibitory activity”. For the same compound, the EC50 in [1] is 5.8 ± 1.74 µg/mL; in data set [2], 5.47 ± 1.27 µg/mL; in [5], 3.7 ± 2.24 µg/mL; in data set [7], 4.65 ± 0.47 µg/mL. Also, the CC50 at 24 h in [3] is 606 ± 61.1 µg/mL; in data set [4], 88.4 ± 6.76 µg/mL; in data set [9], 84.7 ± 5.55 µg/mL. Further, the “inhibition of Mpro enzymatic activity” value at SARS-CoV-2 Mpro is “even stronger inhibitory activity on M^pro than tannic acid and OPCs”. Besides, the “inhibitory activity against the Spike protein–ACE2 interaction” value in data set [6] is “highest inhibitory activity”. Besides, the “SI (ratio of CC50 to EC50)” value in data set [8] turned out to be 15.49.

Regarding `Oc1cc(O)c2c(c1)O[C@H](c1ccc(O)c(O)c1)[C@H](O)[C@H]2c1c(O)cc(O)c2c1O[C@H](c1ccc(O)c(O)c1)[C@H](O)C2` [PB2, procyanidin B2], the 50% inhibitory concentration (IC50) with Mpro of SARS-CoV-2 is 75.3 ± 1.29 µM.

For the compound tannic acid [reference compound], the “EC50 (inhibition of SARS-CoV-2 Vpp infection by 50%)” value in data set [8] was 6.91±0.63.

The values are drawn from publication PMC10465125 (eLife, 2023).
